In ChEMBL document CHEMBL5096147, “Glycogen Synthase Kinase 3β: A New Gold Rush in Anti-Alzheimer's Disease Multitarget Drug Discovery?” (J Med Chem, 2021):
Blank lines part the entries; values can stand above or below the compound they belong to.

How the values were obtained:
[1] = molecular target: Adenosine kinase (Homo sapiens, UniProt P55263); experiment: Inhibition of human wild type AK expressed in Escherichia coli using [2,8- 3H]-Ado and ATP as substrate by radiometric analysis
[2] = molecular target: T1, Glycogen synthase kinase-3 beta (Homo sapiens, UniProt P49841)
T1 sequence (P49841 whole entry): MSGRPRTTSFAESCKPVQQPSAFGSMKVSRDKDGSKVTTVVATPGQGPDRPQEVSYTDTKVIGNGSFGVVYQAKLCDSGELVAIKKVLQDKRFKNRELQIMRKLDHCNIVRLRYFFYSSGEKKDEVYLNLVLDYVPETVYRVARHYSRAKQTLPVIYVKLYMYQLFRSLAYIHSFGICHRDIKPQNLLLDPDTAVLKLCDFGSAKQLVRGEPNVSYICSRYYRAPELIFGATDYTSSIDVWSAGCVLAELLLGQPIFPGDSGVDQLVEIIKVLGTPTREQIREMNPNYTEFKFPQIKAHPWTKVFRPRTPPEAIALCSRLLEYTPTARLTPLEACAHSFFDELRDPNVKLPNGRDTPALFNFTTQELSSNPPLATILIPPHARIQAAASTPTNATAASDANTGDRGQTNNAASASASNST
Description: Inhibition of GSK-3beta (unknown origin)

[3] = molecular target: Beta-secretase 1 (Homo sapiens, UniProt P56817); experiment: Inhibition of BACE-1 (unknown origin) using M-240 (methoxycoumarin-Ser-Glu-Val-Asn-Leu-Asp-Ala-Glu-Phe-Lys-dinitrophenyl) peptide as substrate preincubated for 60 mins followed by substrate addition and measured after 15 mins by fluorescence based analysis
Beta-secretase 1, sequence (P56817 whole entry): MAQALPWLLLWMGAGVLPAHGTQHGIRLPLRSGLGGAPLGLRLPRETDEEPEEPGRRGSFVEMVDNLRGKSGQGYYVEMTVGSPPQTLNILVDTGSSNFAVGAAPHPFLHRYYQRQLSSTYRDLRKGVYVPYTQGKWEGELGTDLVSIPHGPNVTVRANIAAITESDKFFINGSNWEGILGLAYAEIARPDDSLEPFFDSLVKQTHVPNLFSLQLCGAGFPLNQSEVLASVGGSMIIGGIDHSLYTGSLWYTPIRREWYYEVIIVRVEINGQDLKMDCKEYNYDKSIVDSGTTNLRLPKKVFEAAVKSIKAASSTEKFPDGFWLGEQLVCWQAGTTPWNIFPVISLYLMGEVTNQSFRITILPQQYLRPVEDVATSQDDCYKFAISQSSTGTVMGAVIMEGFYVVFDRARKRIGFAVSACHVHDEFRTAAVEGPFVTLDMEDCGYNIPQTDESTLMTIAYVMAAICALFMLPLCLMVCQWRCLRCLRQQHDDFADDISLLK

[4] = molecular target: T1, Glycogen synthase kinase-3 beta; experiment: Inhibition of recombinant human GSK-3beta incubated for 30 mins using prephosphorylated polypeptide as substrate in presence of ATP by Kinase-Glo reagent based luminescent assay
[5] = Kinetic aqueous solubility of the compound in PBS buffer at pH 7.4 at 250 uM and measured after 24 hrs by UPLC/MS analysis; assay type: physicochemical; conditions: read-out: Kinetic_solubility
[6] = Cmax in CD-1 mouse plasma at 10 mg/kg, po and measured after 30 mins by LC-MS/MS analysis; assay type: ADME, organism-based; parameters: dose 10 mg/kg, time 30 min, route po
[7] = Cmax in CD-1 mouse brain at 10 mg/kg, po and measured after 30 mins by LC-MS/MS analysis; assay type: ADME, organism-based; parameters: dose 10 mg/kg, time 30 min, route po

Adenosine kinase, sequence (P55263 whole entry): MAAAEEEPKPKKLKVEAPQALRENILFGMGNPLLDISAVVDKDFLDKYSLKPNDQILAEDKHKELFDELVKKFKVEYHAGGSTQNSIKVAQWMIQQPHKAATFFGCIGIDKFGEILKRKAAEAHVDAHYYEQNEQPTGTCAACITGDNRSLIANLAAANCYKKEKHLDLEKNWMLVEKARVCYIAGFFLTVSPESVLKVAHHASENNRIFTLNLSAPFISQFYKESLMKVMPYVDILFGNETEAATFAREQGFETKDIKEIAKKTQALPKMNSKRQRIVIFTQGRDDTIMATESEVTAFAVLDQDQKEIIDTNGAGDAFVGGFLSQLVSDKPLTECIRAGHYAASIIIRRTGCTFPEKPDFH

- IC50 [1]: 1200 nM
Structure (SMILES): CCC1(c2ccc(COc3ccccc3)cc2)Oc2ccccc2-n2cccc2C1=O (configuration not stated)

- IC50 [2]: 304 nM
Structure (SMILES): COc1cc2c(Br)cc3c(c2cc1OC)C(=O)NC3=O

- IC50 [3]: 18 µM
- IC50 [4]: 14.7 µM
- solubility kinetic at 24 h, 250 µM [5]: > 250 µM
- Cmax [6]: 665 ng/mL
- Cmax [7]: 0.613 ng/mL
Structure (SMILES): NC1=NC(c2ccc(F)cc2)CC(=O)N1 (configuration not stated)
